{"source": "paper PMC11091117", "about": "“A fluorescently-tagged tick kinin neuropeptide triggers peristalsis and labels tick midgut muscles” (Scientific Reports, 2024)", "key": {"[1]": {"test_system": "tick kinin receptor (CHO-K1 BMLK3 cells)", "test": "Fluorescence microscopy validation of labeled peptide specificity on live BMLK3 cells", "type": "binding, Rhipicephalus microplus", "experimental": "BMLK3 and vector-only cells were cultured in selective media (F-12K medium containing 10% fetal bovine serum and 800 µg/mL-1 of G418 sulfate), cells were seeded in […] (CELLSTAR®, Greiner Bio-One®, Monroe, NC USA) at 20,000 cells per well and were incubated overnight. The next assay, the cell culture medium was removed, and cells were rinsed twice with 200 µl DPBS, and 180 µl of HBSS buffer was added into each well. The peptide stock solutions were prepared in 1% DMSO in HBSS at 100 µM. TMR-RK8 (20 µl) was added into each well and incubated with the cells for 5 min at room temperature. The medium was then removed with a pipette and the cells were rinsed twice with 200 µl HBSS, and DAPI (VECTASHIELD® H-1200, Vector Laboratories) was added (20 µl of 0.15 µg/ml) for visualizing the cell nuclei. Cells were rinsed twice with 200 µl of HBSS, and finally 180 µl HBSS per well was added.\nThe cells were immediately imaged under a Zeiss Axio Observer® inverted fluorescence microscope. The exposure time for the Bodipy-Tetramethylrhodamine-X (BPTmX) fluorescence channel was the same for BMLK3 cells and V/O cells. DAPI imaging was done subsequently using the same focal height as the BPTmx channel."}, "[2]": {"test_system": "tick kinin receptor in midgut muscles", "test": "Fluorescent labeling of live midgut ex vivo, confocal microscopy", "type": "binding, Rhipicephalus sanguineus", "description": "Three peptides were used in this study. These included: 1) the ligand for the endogenous tick kinin receptor from Rhipicephalus sanguineus, Rhisa-kinin 8 peptide of sequence GTGEDQAFSPWGamide (Rhisa-K-8; RK8; of identical sequence to Rhimi-K-8 in Rhipicephalus microplus)[48], 2) the same peptide but fluorescently labeled at the N-terminus with tetramethylrhodamine (TMR) a red fluorescent dye, designated TMR-Rhisa-K-8 (TMR-RK8), and 3) a labeled peptide synthesized with the scrambled sequence of the kinin ligand, designated TMR-Scrambled. The sequence of TMR-RK8 was TMR-C-GTGEDQAFSPWGamide). The TMR-Scrambled kinin (TMR-C-GTQWGPGFEADSamide) served as a negative control for tissue labeling. All peptides were custom-synthesized and purchased from GenScript (Piscataway, NJ, USA) with a purity of ≥ 95% and the cysteine in bold in both sequences was added to attach the label. Experiments were replicated with independently synthesized batches (4 mg each) of labeled and unlabeled peptides, for reproducibility. Unlabeled RK8 was used as a competitive ligand to verify target-specific binding of the labeled TMR-RK8 (see Ligand Competition Assay). For cell assays, the peptide stock solutions (100 µM) were made in 1% dimethyl sulfoxide (DMSO) in Hank’s balanced salt solution (HBSS, Thermo Fisher, Waltham, USA). For fluorescent cell labeling, peptide working solutions (10 µM) were prepared in HBSS from stock solutions. For assays on the midgut, peptides were solubilized and diluted in a tick physiological saline consisting of 140 mM NaCl, 5 mM KCl, 1 mM MgCl2, 5 mM CaCl2, 4 mM NaHCO3, and 5 mM HEPES, pH 7.2[49].\nIndividual female ticks were immobilized on a Petri dish filled with wax by submerging their legs in melted wax heated with a soldering pencil (Electronic Control Soldering Station EC 1000, Weller, Apex, North Carolina, USA). Females were dissected under physiological saline following the protocol described by Tidwell et al.[51]. The tick was cut along the edge of the scutum/alloscutum using a stainless steel #12 scalpel blade (Integra Miltex, York, PA, USA), after which the scutum was removed with a pair of fine forceps. To expose the midgut for removal, the tracheae, Malpighian tubules, ovaries, rectal sac, and synganglion were removed with fine forceps in that order. The midgut was then carefully removed and placed into 200 µL of fresh tick saline (See Reagents and Peptides) on a single gasketed incubation chamber (500 µL, Size 22 × 40 mm, Electron Microscopy Sciences, Hatfield, PA). The midguts were then rinsed three times with the physiological tick saline for subsequent fluorescent labeling or activity experiments.\nTo determine the location of the tick kinin receptor in the midgut of ticks, a commercially synthesized Rhisa-kinin peptide 8[52] conjugated with a stable, red fluorophore (TMR-RK8) or a similarly labeled peptide of scrambled sequence (TMR-Scrambled) were applied to freshly dissected midguts ex vivo. For this, midguts of unfed adult females were incubated in ice-cold saline for 10 min. The saline was removed before incubation in 200 µL of 4’,6-diamidino-2-phenylindole dihydrochloride (DAPI, Sigma, 1 µg/mL in saline) for 1 min and rinsed with saline (200 µL) once. After saline removal, the midgut was incubated for 1 min with 200 µL of 10 µM of either TMR-Scrambled kinin or TMR-RK8, then the labeled peptide solution was removed by pipette and the midgut was rinsed twice with 200 µL saline. […]"}}, "note": "“Also recorded” adds a separate entry of the source.", "data": [{"substance": "TMR-C-GTGEDQAFSPWGamide [TMR-RK8]", "values": [{"measurement": "labeling of BMLK3 cells, Fig. S1 (in words)", "setting": "[1]; 1 µM TMR-RK8, 5 min at room temperature, HBSS, Zeiss Axio Observer, BPTmX channel", "result": "only observed in the BLMK3 cells"}, {"measurement": "receptor visualization across multiple BMLK3 cells (in words)", "setting": "[1]; Figs. S1 and S2, BMLK3 cells", "result": "consistently visualized with TMR-RK8 across multiple BMLK3 cells"}, {"measurement": "displacement of TMR-RK8 label by phalloidin (in words)", "setting": "[2]; 10 µM TMR-RK8, Alexa Fluor 488 Phalloidin 15 min, midgut muscle fibers", "result": "no observed phalloidin displacement of the TMR-RK8 label"}, {"measurement": "non-specific labeling below midgut surface (in words)", "setting": "[2]; 10 µM labeled peptide, 1 min, midguts ex vivo, Z-slices under the surface", "result": "aggregation of TMR-RK8 signal in what appears to be lipid vesicles; also recorded: non-specific labeling observed in lipid vesicles inside the midgut"}, {"measurement": "labeling of midgut surface muscles (in words)", "setting": "[2]; 10 µM labeled peptide, 1 min, tick saline pH 7.2, midguts of unfed females ex vivo, DAPI and Alexa 488-phalloidin, confocal 20X/40X", "result": "labeled the kinin receptor in muscles; also recorded: localized the kinin receptor to both circular and longitudinal muscles; also recorded: signal was observed in the tick midgut muscles under confocal microscopy; also recorded: observed only on the surface of the midgut; also recorded: binding specifically to the circular (white arrowheads) and longitudinal (white arrows) muscles"}]}]}
